Active and inactive are the calls of the source.
Assays:
[1] = Luminescence Cell-Based Dose Confirmation HTS to Identify Activators of 5'UTR Stem-Loop Driven Alpha-Synuclein mRNA Translation in H4 Neuroglioblastoma Cells. [Related pubchem assays: 1829 (Project Summary), 1814 (Primary HTS)]; type: functional
Melanocortin receptor 4 = Melanocortin receptor 4 (Homo sapiens, UniProt P32245); type: functional, cell-based;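 further: Cell-based assay with luminescence read-out, confirmatory dose-response testing for agonist activity of biased ligands at MC4R; human U2OS cells with tagged receptor and beta-arrestin; potency of agonists that increase receptor coupling to beta-arrestin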
[2] = Luminescence Cell-Based Dose Response HTS to Identify Activators of Luciferase Translation or Activity in H4 […] Cells. [Related pubchem assays: 1829 (Project Summary), 1814 (Primary HTS)]; type: functional
H4 = test: Luminescence Cell-Based Dose Response HTS to Identify Activators of 5'UTR Stem-Loop Driven Prion Protein mRNA Translation in H4 Neuroglioblastoma Cells. [Related pubchem assays: 1829 (Project Summary), 1814 (Primary HTS)]; type: functional; conditions: Homo sapiens
[3] = target: T1, Long-chain-fatty-acid--AMP ligase FadD28 (Mycobacterium tuberculosis, UniProt P9WQ59); test: Fluorescence polarization aasay to screen for inhibitors that compete for the binding of FadD28 to a bisubstrate Measured in Biochemical System Using Plate Reader - 2147-01_Inhibitor_Dose_CherryPick_Activity.; type: functional, Mycobacterium tuberculosis H37Rv
T1 sequence (P9WQ59 whole entry): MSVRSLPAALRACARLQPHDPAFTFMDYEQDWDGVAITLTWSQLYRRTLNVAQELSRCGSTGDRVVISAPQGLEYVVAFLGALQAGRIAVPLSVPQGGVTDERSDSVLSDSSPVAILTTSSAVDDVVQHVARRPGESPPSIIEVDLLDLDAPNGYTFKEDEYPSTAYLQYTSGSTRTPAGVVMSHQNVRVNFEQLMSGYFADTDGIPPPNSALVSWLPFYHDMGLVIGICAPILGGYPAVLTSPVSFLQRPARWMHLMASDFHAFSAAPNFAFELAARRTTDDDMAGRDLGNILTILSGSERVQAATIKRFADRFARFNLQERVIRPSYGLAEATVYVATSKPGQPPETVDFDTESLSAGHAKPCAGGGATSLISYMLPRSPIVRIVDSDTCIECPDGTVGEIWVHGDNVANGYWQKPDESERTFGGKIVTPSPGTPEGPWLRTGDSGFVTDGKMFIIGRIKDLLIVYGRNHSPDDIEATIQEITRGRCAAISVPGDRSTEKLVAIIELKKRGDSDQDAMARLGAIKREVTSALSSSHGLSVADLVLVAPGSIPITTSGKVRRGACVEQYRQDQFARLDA

Protein Wnt-3a = Protein Wnt-3a (Mus musculus, UniProt P27467); test: antagonism of Wnt3a pathway luciferase reporter – Wnt-LIGHT cells, luminescence, selectivity assay for Gli-SUFU antagonist project, dose response (AID 651570); type: functional; conditions: read-out: IC50_Mean;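 further: Wnt-LIGHT reporter cells stimulated with conditioned medium from Wnt3a-producing cells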
[4] = target: Glucose-6-phosphate 1-dehydrogenase (Homo sapiens, UniProt P11413); test: inhibition of Homo sapiens G6PD, dose series – biochemical, fluorescence, selectivity assay for P. falciparum G6PD inhibitor project, dose response (AID 504792); type: functional
[5] = mammalian cell viability loss – Alamar Blue, dry powder, cytotoxicity control for antifungal single agent project, dose response (AID 602188); type: functional, cell-based
[6] = target: T2, Mitochondrial peptide methionine sulfoxide reductase (Bos taurus, UniProt P54149); type: functional;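 further: absorbance read-out, biochemical high-throughput dose-response screen for MsrA inhibitors, confirmatory; recombinant bovine MsrA coupled to E. coli TrxB with NADPH and selenocystamine; potency is for inhibitors of MsrA activity on DMSO substrate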
T2 sequence (P54149 whole entry): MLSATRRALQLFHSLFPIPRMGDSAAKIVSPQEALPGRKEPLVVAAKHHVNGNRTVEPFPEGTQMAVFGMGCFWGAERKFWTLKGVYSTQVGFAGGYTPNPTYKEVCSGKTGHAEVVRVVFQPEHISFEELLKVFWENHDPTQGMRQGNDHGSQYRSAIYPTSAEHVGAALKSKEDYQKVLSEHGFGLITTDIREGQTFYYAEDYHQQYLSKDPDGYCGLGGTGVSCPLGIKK

[7] = NIH-3T3 fibroblast cytotoxicity, dose response, cytotoxicity control, cell-based, fluorescence, Alamar Blue, secondary assay (AID 2327); type: functional;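 further: NIH-3T3 mouse fibroblasts cultured with fluconazole at 8 µg/mL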
[8] = target: ATP-dependent molecular chaperone HSP82 (Candida albicans (strain WO-1) (Yeast), UniProt C4YTQ8); test: steroid-induced GRE reporter decrease in yeast – S. cerevisiae, luminescence, Hsp90 inhibitor project, dose response (AID 2400); type: functional, cell-based;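 further: beta-galactosidase luminescence from glucocorticoid response element reporter as proxy for Hsp90 function; inhibitor potency where signal loss means Hsp90 inhibition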
[9] = target: Heat shock protein HSP 90-alpha (Homo sapiens, UniProt P07900); type: functional, organism-based
[10] = fluconazole-exposed Candida albicans growth modulators – fluorescence, retest, confirmation (AID 2467); type: functional, cell-based
Streptococcus = test: GAS UMAA2166 growth inhibition – luminescence, BacTiterGlo, counter-screen for streptokinase expression inhibitor project, dose response (AID 1915); type: functional, organism-based;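 further: potency for reduction of bacterial viability or growth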
[11] = system: Streptococcus sp. 'group A'; test: Streptococcus pyogenes SK(-)GAS viability under kanamycin – luminescence, BacTiterGlo, confirmation, counter-screen for streptokinase expression inhibitor project, dose response (AID 1900); type: functional, organism-based
Streptokinase A = target: T3, Streptokinase A (Streptococcus pyogenes serotype M1, UniProt P10520); test: viability-normalized secreted streptokinase activity reduction – plasminogen activation absorbance, OD405, dose response (AID 1914); type: functional, Streptococcus pyogenes M1 GAS;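 further: secreted streptokinase activity via plasminogen activation per viability signal from cell pellet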
T3 sequence (P10520 whole entry): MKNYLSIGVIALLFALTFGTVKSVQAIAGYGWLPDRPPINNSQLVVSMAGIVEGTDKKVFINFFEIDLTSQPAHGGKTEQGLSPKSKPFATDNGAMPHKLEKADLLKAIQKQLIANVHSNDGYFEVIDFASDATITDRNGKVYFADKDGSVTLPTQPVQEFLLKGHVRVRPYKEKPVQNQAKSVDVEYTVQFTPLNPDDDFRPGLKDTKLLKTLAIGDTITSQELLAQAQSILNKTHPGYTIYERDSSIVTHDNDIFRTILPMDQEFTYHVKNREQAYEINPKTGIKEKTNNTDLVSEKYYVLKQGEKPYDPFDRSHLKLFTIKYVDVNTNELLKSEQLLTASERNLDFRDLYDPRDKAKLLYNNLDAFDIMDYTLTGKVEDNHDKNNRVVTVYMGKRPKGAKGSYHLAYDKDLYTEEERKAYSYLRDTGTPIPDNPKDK

[12] = target: T4, Serine/threonine-protein phosphatase (Candida dubliniensis (strain CD36 / CBS 7987 / NCPF 3949 / NRRLY-17841) (Yeast), UniProt B9W6M3); test: blockers of CaCl2-induced CDRE-lacZ signaling – S. cerevisiae, luminescence, secondary, dose response (AID 2388); type: functional, cell-based;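 further: yeast reporter cells carrying a calcineurin-responsive lacZ construct stimulated with calcium chloride; luminescent beta-galactosidase reporter signal in whole cells rather than isolated phosphatase activity; potency for inhibition where a drop in reporter signal means calcineurin blockade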
T4 sequence (B9W6M3 whole entry): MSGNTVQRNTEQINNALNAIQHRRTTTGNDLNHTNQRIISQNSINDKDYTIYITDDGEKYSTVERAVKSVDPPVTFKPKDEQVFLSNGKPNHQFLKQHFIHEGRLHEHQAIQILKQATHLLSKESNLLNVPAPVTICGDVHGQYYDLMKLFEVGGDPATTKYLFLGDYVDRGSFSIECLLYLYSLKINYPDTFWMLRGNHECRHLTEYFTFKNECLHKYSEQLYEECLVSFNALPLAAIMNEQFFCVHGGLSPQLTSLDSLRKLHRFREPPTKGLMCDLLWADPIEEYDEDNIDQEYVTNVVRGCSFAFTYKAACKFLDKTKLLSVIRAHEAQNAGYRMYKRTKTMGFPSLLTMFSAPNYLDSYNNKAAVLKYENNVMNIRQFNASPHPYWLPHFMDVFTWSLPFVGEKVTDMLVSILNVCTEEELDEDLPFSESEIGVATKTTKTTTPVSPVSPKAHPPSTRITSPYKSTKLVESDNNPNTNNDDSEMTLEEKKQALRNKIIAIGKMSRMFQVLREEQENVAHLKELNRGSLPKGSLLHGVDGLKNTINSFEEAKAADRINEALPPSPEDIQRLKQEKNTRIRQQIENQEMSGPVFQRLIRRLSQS

[13] = activation of miR-122 Renilla sensor silencing – cell-based, Huh7 psiCHECK-miR122, Renilla luciferase, cherry-picked, dose response (AID 651956); type: functional;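 further: huh7 hepatoma cells stably carrying a psiCHECK-2 miR-122 sensor plasmid; renilla luciferase signal reporting endogenous miR-122 activity after 48 h compound exposure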
[14] = target: T5, Small ubiquitin-related modifier 1 (Homo sapiens, UniProt P63165); test: SUMO1 protein-protein binding blockers, potency – biochemical, FRET, dose response (AID 624383); type: functional; conditions: read-out: IC50_Mean
[15] = target: T5, Small ubiquitin-related modifier 1; test: SUMO1 protein interaction blockers, potency – biochemical, fluorescence polarization, uHTS hits, dose response (AID 624382); type: functional; conditions: read-out: IC50_Mean
[16] = target: T6, COUP transcription factor 2 (Homo sapiens, UniProt P24468); test: Luminescence-based cell-based high throughput dose response assay to identify inhibitors of COUP-TFII (NR2F2).; type: functional;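 further: HEK293 cells transiently cotransfected with COUP-TFII expression vector and reporter; luciferase reporter luminescence driven by COUP-TFII from the pX2-168 reporter plasmid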
T6 sequence (P24468 whole entry): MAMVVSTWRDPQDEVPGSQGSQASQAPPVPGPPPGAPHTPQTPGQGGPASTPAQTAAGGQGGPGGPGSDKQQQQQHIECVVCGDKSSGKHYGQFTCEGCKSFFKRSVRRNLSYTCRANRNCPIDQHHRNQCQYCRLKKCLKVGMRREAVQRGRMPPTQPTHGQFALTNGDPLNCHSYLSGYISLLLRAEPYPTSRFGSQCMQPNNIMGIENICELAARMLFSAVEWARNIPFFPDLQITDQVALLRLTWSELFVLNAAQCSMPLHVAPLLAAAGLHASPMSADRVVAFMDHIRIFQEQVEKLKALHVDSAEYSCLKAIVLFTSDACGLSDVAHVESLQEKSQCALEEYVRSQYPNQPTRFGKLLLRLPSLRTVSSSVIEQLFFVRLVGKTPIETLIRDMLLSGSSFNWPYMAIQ

[17] = target: Voltage-dependent T-type calcium channel subunit alpha-1H (Homo sapiens, UniProt O95180); type: functional;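 further: channel activity triggered by adding a high calcium stimulation buffer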
H9c2 = test: cells; type: functional, cell-based; conditions: Rattus norvegicus, H9c2, Myocardium
Vero = test: cells; type: functional; conditions: Chlorocebus sabaeus
INS1 = test: INS-1E survival protection against cytokine death – cell-based, luminescence, retest, dose response (AID 449756); type: functional; conditions: Rattus norvegicus;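 further: cell death triggered by IL-1 beta plus TNF-alpha plus IFN-gamma mixture; protective hits raise ATP signal compared with cytokine alone wells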
cells [18] = type: functional, cell-based
[19] = Trypanosoma cruzi growth suppression in host cells – NIH3T3 host cells, beta-gal luminescence, confirmation (AID 2044); type: functional, cell-based;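 further: intracellular parasites grown in NIH/3T3 mouse fibroblasts as host cells; luminescent beta-galactosidase reporter signal from transgenic T. cruzi replicating inside host cells; inhibitors lower the luminescence signal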
[20] = NIH3T3 cell viability loss – ATP luminescence, mouse fibroblasts, counter-screen, dose response (AID 2010); type: functional, cell-based;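 further: cells exposed to compound for about 90 hours before reading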
cells [21] = type: functional, cell-based; remark: listed apart in the source
[22] = target: SWI/SNF-related matrix-associated actin-dependent regulator of chromatin subfamily A member 2 (Homo sapiens, UniProt P51531); test: Luminescence-based cell-based high throughput dose response assay to identify activators of the function of SWI/SNF related, matrix associated, actin dependent regulator of chromatin, subfamily a, member 2 (SMARCA2, BRM).; type: functional
[23] = Counterscreen for activators of the function of SWI/SNF related, matrix associated, actin dependent regulator of chromatin, subfamily a, member 2 (SMARCA2, BRM): Luminescence-based cell-based high throughput dose response assay to identify non-selective compounds using the VP16 reporter assay.; type: functional

Sequence of ATP-dependent molecular chaperone HSP82 (C4YTQ8 whole entry): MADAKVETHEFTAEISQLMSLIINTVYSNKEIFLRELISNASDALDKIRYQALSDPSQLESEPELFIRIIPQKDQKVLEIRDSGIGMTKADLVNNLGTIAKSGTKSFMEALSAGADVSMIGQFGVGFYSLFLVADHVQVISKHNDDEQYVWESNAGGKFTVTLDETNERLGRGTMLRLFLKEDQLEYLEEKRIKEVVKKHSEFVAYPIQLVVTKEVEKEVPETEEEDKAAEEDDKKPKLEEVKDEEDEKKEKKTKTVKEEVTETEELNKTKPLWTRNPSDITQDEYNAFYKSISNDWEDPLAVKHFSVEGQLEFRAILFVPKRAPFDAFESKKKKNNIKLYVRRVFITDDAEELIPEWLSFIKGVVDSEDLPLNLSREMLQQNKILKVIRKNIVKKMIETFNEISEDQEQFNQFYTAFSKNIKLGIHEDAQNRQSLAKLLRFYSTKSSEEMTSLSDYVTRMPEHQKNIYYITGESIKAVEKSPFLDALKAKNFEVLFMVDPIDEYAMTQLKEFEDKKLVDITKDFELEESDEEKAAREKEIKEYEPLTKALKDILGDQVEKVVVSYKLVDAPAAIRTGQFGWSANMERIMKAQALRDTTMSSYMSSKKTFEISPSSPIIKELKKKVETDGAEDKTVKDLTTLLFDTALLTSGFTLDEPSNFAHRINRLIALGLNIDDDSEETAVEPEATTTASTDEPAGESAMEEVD
Sequence of Protein Wnt-3a (P27467 whole entry): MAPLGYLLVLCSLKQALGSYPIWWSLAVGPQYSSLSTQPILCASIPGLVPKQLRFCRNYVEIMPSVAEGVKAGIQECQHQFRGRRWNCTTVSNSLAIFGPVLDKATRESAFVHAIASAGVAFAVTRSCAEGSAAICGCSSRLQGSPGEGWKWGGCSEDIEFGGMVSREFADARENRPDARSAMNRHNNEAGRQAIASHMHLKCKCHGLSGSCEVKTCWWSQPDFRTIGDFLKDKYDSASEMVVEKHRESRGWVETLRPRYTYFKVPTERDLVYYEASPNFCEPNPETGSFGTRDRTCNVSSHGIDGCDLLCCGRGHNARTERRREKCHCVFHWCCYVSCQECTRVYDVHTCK
T5 sequence (P63165 whole entry): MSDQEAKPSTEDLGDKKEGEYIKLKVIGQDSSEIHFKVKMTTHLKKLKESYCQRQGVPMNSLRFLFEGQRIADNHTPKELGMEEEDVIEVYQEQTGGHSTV
Sequence of Melanocortin receptor 4 (P32245 whole entry): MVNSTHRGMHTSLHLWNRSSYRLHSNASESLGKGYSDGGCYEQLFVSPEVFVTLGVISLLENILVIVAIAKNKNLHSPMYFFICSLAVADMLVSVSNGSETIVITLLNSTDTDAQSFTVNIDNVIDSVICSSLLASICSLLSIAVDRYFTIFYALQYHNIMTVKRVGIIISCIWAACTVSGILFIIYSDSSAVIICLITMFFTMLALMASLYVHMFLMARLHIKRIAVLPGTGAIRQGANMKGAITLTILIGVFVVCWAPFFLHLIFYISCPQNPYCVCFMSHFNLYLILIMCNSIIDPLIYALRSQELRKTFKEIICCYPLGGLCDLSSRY
Sequence of SWI/SNF-related matrix-associated actin-dependent regulator of chromatin subfamily A member 2 (P51531 whole entry): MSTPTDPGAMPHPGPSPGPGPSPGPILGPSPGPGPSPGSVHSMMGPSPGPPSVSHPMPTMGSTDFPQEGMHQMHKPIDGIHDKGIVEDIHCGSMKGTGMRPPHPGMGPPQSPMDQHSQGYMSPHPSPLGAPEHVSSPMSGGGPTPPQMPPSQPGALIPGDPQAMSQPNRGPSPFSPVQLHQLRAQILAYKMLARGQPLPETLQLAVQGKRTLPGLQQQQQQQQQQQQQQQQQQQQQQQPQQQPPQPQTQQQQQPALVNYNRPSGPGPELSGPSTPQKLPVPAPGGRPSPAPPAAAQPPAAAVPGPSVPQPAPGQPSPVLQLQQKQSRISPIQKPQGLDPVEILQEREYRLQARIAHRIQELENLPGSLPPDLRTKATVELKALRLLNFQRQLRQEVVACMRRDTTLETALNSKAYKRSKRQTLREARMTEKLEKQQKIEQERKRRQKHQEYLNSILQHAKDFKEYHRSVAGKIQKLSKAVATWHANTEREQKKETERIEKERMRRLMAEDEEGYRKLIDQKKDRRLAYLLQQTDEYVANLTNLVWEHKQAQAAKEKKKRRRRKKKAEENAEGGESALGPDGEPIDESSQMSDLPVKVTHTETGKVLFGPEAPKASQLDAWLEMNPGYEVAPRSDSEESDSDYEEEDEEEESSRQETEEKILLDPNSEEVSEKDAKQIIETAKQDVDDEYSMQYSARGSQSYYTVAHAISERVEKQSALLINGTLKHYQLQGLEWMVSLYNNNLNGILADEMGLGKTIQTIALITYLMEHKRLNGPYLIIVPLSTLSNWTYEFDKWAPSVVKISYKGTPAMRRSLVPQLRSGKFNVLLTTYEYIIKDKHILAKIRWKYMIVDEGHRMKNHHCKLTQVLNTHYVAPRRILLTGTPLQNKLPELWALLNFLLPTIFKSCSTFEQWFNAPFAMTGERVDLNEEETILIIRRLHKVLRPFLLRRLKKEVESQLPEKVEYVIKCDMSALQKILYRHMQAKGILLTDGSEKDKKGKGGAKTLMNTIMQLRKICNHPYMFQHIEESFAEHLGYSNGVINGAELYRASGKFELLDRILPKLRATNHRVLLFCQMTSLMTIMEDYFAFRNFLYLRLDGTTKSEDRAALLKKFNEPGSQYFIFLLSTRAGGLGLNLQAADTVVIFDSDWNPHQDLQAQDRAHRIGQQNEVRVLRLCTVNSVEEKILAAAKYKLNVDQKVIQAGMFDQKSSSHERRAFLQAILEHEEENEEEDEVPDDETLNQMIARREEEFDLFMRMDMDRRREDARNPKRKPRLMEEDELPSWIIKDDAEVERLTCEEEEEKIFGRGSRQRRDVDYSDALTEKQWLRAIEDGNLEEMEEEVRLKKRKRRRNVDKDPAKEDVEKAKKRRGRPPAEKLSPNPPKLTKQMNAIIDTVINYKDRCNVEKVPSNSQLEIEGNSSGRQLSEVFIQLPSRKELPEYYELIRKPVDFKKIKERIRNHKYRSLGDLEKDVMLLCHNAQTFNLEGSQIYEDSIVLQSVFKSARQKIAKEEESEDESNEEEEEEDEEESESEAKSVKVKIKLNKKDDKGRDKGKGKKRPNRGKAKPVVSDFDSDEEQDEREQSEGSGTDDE
Sequence of Glucose-6-phosphate 1-dehydrogenase (P11413 whole entry): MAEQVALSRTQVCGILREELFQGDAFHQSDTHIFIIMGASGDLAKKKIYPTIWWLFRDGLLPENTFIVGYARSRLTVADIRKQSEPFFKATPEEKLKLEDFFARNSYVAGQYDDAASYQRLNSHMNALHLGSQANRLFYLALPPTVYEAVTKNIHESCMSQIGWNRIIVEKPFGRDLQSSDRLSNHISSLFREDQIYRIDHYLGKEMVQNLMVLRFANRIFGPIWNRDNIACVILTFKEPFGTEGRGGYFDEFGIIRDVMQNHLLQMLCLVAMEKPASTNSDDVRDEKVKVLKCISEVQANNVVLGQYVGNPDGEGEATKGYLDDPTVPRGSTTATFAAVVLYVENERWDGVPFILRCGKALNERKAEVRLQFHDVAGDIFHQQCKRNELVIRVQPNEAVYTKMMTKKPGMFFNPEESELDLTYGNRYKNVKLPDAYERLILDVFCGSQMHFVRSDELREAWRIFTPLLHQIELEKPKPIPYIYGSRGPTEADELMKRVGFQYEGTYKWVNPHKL

## Cc1nnnn1/C(=C\c1ccccc1)C(=O)OCC(=O)Nc1ccc(Cl)cc1F
[1]
  EC50: > 120 µM (not active)
Melanocortin receptor 4
  EC50: > 89.2 µM (inactive)
[2]
  EC50: > 60 µM (not active)
H4
  EC50: 5.56 µM (active)

## O=C(CCC(=O)Nc1ccc(F)cc1)N/N=C/c1c[nH]c2ccccc12
[3]
  AC50: 49 µM (active)

## COc1ccc2sc(-c3ccc(S(C)(=O)=O)cc3)c(C#Cc3cncn3C)c2c1
Melanocortin receptor 4
  EC50: > 89.2 µM (inactive)

## Cc1cc(C)nc(NC(N)=Nc2ccccc2-c2ccccc2)n1
Protein Wnt-3a
  IC50: 16.9 µM (active)
[4]
  IC50: > 80 µM (inactive)

## CCC(C(=O)NCCC(C)C)n1ccc2cc(S(=O)(=O)N3CCCCC3)ccc21 (configuration not stated)
Protein Wnt-3a
  IC50: 5.14 µM (active)

## Cc1ccc(C(=O)Nc2nnc(-c3ccccc3)o2)cc1C
[5]
  AC50: 14.2 µM (active)

## C/C(=N\Nc1ccc(C#N)cc1[N+](=O)[O-])c1ccc(O)cc1
[6]
  IC50: 155 µM (inactive)

## O=C(NNc1nc2ccc(Cl)cc2s1)c1cc(-c2cccs2)nc2ccccc12
[7]
  EC50: 19.7 µM (active)
[8]
  EC50: 12.8 µM (active)
[9]
  AC50: 2.18 µM (active)
[10]
  EC50: 0.433 µM (active)
Streptococcus
  EC50: 5.79 µM (active)
[11]
  EC50: 0.472 µM (active)
Streptokinase A
  EC50: > 150 µM (not active)
[12]
  EC50: > 180 µM (inactive)

## Cc1cc(C)nc(NS(=O)(=O)c2ccc(NC(=S)NC(=O)C3CCCC3)cc2)n1
[13]
  AC50: 11.1 µM (active)

## Cn1cnnc1SCC(=O)Nc1ccc(OCc2ccccc2)cc1
[14]
  IC50: 32 µM (inactive)
[15]
  IC50: > 66.6 µM (inactive)

## CCc1cccc2c(C(=O)COC(=O)c3cccc(S(=O)(=O)N(C)C4CCCCC4)c3)c[nH]c12
[3]
  AC50: 30.6 µM (active)

## Nc1nc2ccccc2n1/N=C/c1ccc2c(c1)OCO2
[6]
  IC50: 45.6 µM (inactive)

## CC(=O)c1cn(CCOc2ccccc2C)c2ccccc12
[16]
  IC50: 8.92 µM (active)
Protein Wnt-3a
  IC50: 3.66 µM (active)

## O=C(Nc1nnc(-c2ccc3c(c2)CCCC3)o1)c1ccccc1
[5]
  AC50: 4.89 µM (active)
[7]
  EC50: > 160 µM (inactive)
[8]
  EC50: 4.72 µM (active)
[17]
  EC50: 3.25 µM (active)
H9c2
  IC50: > 79 µM (inactive)
Vero
  CC50: > 25 µM (active)
[10]
  EC50: 0.229 µM (active)
[12]
  EC50: > 180 µM (inactive)

## Cc1cc(C)n(-c2nc3ccccc3c(=O)n2OCC#N)n1
INS1
  AC50: 4.13 µM (active)
[5]
  AC50: 0.881 µM (active)
[7]
  EC50: 150 µM (active)
Cells [18]
  EC50: 28.9 µM (active)
[8]
  EC50: > 150 µM (inactive)
[19]
  EC50: 1.14 µM (active)
[20]
  EC50: 4.32 µM (active)
Vero
  CC50: 8.68 µM (active)
[10]
  EC50: 0.727 µM (active)
[12]
  EC50: > 180 µM (inactive)
Cells [21]
  EC50: 137 µM (active)

## Cc1ccnc(Nc2nc3ccccc3s2)n1
[22]
  EC50: > 91.2 µM (inactive)
[23]
  EC50: > 91.2 µM (inactive)
